Data set [1] is described as follows: physchem. The settings on record: 25 °C. The source says: Fine and highly monodispersed coloring particles intended according to aspects of the present invention may contain a dye hardly soluble in the water contained in the second liquid described later. […] The solubility parameter of the dye, however, may vary depending on the pH of the water containing it.
The solubility parameter used according to aspects of the present invention can be calculated by measuring the degree of water solubility (mol/L) of the dye by any known experimental method and then substituting the measurement into equation (1). […] For dyes such as metal complex dyes and salt dyes, the metal or salt is first removed, and then the degree of solubility is calculated using ACD/Structure Design Suite and the solubility parameter is calculated from the value.

The conditions of data set [2]: in water; cited from earlier work.

Structures are written as SMILES. In brackets after ≈: the same amount, converted by molar mass.

For the compound `CC1(C)Nc2cccc3c(/N=N/c4ccc(/N=N/c5ccccc5)c5ccccc45)ccc(c23)N1` [dye 1], the solubility in data set [1] (pH 6, aqueous buffer) is ≤ 0.631 nM. Same read-out and setting: the same measure for `Cc1cccc(Nc2cccc3c2C(=O)c2cccc(Nc4cccc(C)c4)c2C3=O)c1` [dye 2]: ≤ 0.631 nM. Consider `Cc1cc(Br)c(Nc2ccc(O)c3c2C(=O)c2ccccc2C3=O)c(Br)c1` [dye 4], for which the solubility is 0.794 nM (≈ 0.387 ng/mL) in data set [1] (pH 6, aqueous buffer) and 813 nM (≈ 396 ng/mL) in data set [1] (pH 11, aqueous buffer). For `CCCCCCCCCCCCOS(=O)(=O)[O-].[Na+]` [sodium dodecyl sulfate], in data set [2], the Critical micelle concentration was 0.0025 g/mL.

For orientation: solubility means how much of the substance goes into solution per volume. Low readings indicate little dissolved substance, high ones much dissolved substance.

The values are drawn from patent publication US20120190788A1, “COLORING PARTICLES” (CANON KABUSHIKI KAISHA, priority 2011, published 2012).
